The values below come from patent US20200123208A1, “PEPTIDES AND NEMATICIDAL COMPOSITIONS” (priority 2017, published 2020).

Type in all cases: in vivo
Experiment [1] relates to Meloidogyne incognita J2s. Nature of the experiment: B. subtilis and C. reinhardtii plant protection assay, M. incognita. The settings on record: tomato. The protocol:
(§1) Tomato seeds were sterilised with 2.5% NaOCl for 15 minutes, washed 5 times in ddH2O and germinated on 0.5% Murashige and Skoog plates at 23° C. […] Invasion assays were performed by mixing 500 pre-treated M. incognita or G. pallida J2s with agar slurry and a single tomato seedling (2 days post germination) in a 6 well plate. Assays were left at 23° C. for 24 hours in the case of M. incognita and at 18° C. for 24 hours in the case of G. pallida under a 16 hour light and 8 hour darkness cycle. Seedlings were stained using acid fuschin [69] and the number of nematodes within the roots counted.
(§2) B. subtilis were grown overnight in LB media containing ampicillin (100 μg/ml) at 37° C. with shaking, and harvested in the log phase of growth determined by measuring OD600nm. Five ml of culture at 0.5 OD was spun down and the pellet mixed with 3 ml of agar slurry and 500 J2s from either G. pallida or M. incognita. C. reinhardtii clones were grown at 23° C. with shaking, cultures in the log phase were measured at OD750 and 5 ml of culture at 0.5 OD was pelleted by centrifugation. C. reinhardtii pellets were mixed with 3 ml of agar slurry and 500 J2s from either G. pallida or M. incognita. Plant invasion assays were performed as described above.
uNLP secretion inserts, and vector pChlamy_3 were digested using Kpnl/Xbal (New England Biolabs, USA), ligated using T4 ligase (New England Biolabs, USA), and cloned into Escherichia coli One Shot® TOP10 chemically competent cells (Life Technologies, USA) following manufacturer's instructions. Ampicillin (Sigma Aldrich, USA) was used to select E. coli containing the pChlamy_3 plasmid, which was subsequently extracted using the High Pure Plasmid Isolation Kit (Roche) and sequenced (Eurofins Genomics, UK) to identify correct clones. C. reinhardtii was transformed by electroporation following manufacturer's instructions (GeneArt® Chlamydomonas Engineering Kit, Life Technologies) and individual colonies grown on TAP-Agar-Hygromycin plates (10 μg/mL) (Sigma Aldrich, USA) at 23° C. Colonies were picked and grown at 23° C. in 100 ml TAP growth media (Invitrogen, USA) with constant orbital agitation. qRT-PCR was performed to identify clones with the highest level of uNLP expression, which were then selected for downstream assays (pChlamy universal FWD: […], nlp-15b REV: CTACTAGTCGAGGCCGGTA; Mi-nlp-9f REV: GAACGGGCGGATGAAGTAG).
uNLP secretion inserts, and vector pBE-S were digested using Xbal/Mlul (New England Biolabs, USA), ligated using T4 ligase (New England Biolabs, USA), and cloned into E. coli One Shot® TOP10 chemically competent cells (Life Technologies, USA) following manufacturer's instructions. […]

Experiment [2] concerns mixed-stage Caenorhabditis elegans. The experiment can be described thus: C. elegans chemotaxis assay (non-target nematode). To be noted: 100 μM, 24 h, no statistically significant impact. The protocol:
C. elegans wild-type N2 Bristol strain were obtained from the C. elegans Genomics Center and maintained on a Escherichia coli (strain OP50) lawn on nematode growth medium (NGM) agar plates (3 g/l NaCl, 17 g/l agar, 2.5 g/l peptone, 5 mg/l cholesterol, 25 mM KH2PO4 (pH 6.0), 1 mM CaCl2, 1 mM MgSO4) at 20° C.. Chemotaxis assays were performed in a 9 cm diameter Petri dish on NGM agar which was split into a positive and negative side with a central ‘dead zone’ of 1.5 cm diameter. 100 mixed-staged C. elegans were washed three times in M9 buffer and soaked in 100 μM PPN uNLP, or M9 vehicle control for 24 hours. 2 μl of 50 mM sodium acetate, 0.5% pyrazine, 0.5% benzaldehyde or 0.5% diacetyl was spotted onto the positive side, 2 μl of ddH2O was spotted onto the negative side. Pyrazine, benzaldehyde and diacetyl volatile attractants were assayed immediately whereas the water soluble sodium acetate was assayed 18 hours following addition to the plate. Assays were maintained in the dark at 20° C., and counted after 1 hour.

In experiment [3] the test system is Meloidogyne incognita J2s. The experiment can be described thus: Tomato invasion assay, M. incognita J2s. Here is the method:
(§3) Predicted uNLPs from both M. incognita and G. pallida were synthesised by EZBiolab and dissolved into pH adjusted ddH2O to make a 5 mM stock which was aliquoted and stored at −20° C. J2s of both M. incognita and G. pallida were incubated for 24 hours in 200 μl of each peptide in a 24 well plate (SPL Lifesciences, South Korea) at a defined concentration.
as §1

The next experiment concerns Globodera pallida J2s. Nature of the experiment: B. subtilis and C. reinhardtii plant protection assay, G. pallida. The settings on record: tomato. The protocol:
as §1
as §2, with “above. […]” for “above.”

The subject of experiment [4] is Meloidogyne incognita J2s. Nature of the experiment: Serotonin-induced stylet thrusting assay, M. incognita J2s. To be noted: 100 μM uNLP, 24 h, 5 mM serotonin. Here is the method:
as §3
Stylet thrusting assays where performed by incubating 100 M. incognita or G. pallida J2s for 15 minute in 5 mM or 2 mM serotonin (Sigma Aldrich, USA), respectively. J2s were placed on a glass slide and stylet thrusts were counted for randomly selected J2s, for 1 minute each. Counting took place for a maximum of 15 minutes. Longer incubations yielded inconsistent results. At least 30 J2s were counted for each neuropeptide treatment.

For the sequence SFDSFTGPGFTGLD [Mi-NLP-15b], the “M. incognita invasion relative to control” value in experiment [1] (B. subtilis cultures secreting the uNLP) amounted to 26.63%+/−8.12. The “M. incognita invasion relative to untransformed C. reinhardtii” value in experiment [1] (C. reinhardtii cultures secreting the uNLP) is listed as 10.82%+/−6.574. For the same sequence, in experiment [2] (control 0.4269), the “chemotaxis index (Cl) towards sodium acetate” value is listed as 0.3142+/−0.039. Besides, in experiment [2] (control 0.4904), the “chemotaxis index (Cl) towards pyrazine” value was 0.4959+/−0.089. For the same sequence, in experiment [2] (control 0.6638), the “chemotaxis index (Cl) towards diacetyl” value is recorded as 0.6640+/−0.126. The “chemotaxis index (Cl) towards benzaldehyde” value in experiment [2] (control 0.7026) is recorded as 0.7032+/−0.075. Also, the “host invasion compared to controls” value in experiment [3] (100 μM uNLP, 24 h, tomato seedlings, normalised to negative control) was determined as 32.22%+/−8.122. The “J2 invasion relative to control” value in experiment [3] (Mi-NLP-15b 100 nM, 24 h) was determined as 69.9%+/−10.66; in experiment [3] (Mi-NLP-15b 1 μM, 24 h), 59.05%+/−8.545; in experiment [3] (Mi-NLP-15b 10 μM, 24 h) it was 54.62%+/−8.362; in experiment [3] (Mi-NLP-15b 100 μM, 24 h (dilution series)), 35.06%+/−6.407. In addition, the “G. pallida invasion relative to control groups” value with Globodera pallida J2s (B. subtilis secreting the uNLP) is listed as 51.98%+/−13.29. For the same sequence, the “G. pallida invasion relative to controls” value in the experiment with Globodera pallida J2s (C. reinhardtii expressing the uNLP) stood at 30.95%+/−9.021. Moreover, the “rate of serotonergic-induced stylet thrusting compared with controls” value in experiment [4] is 129.9%+/−10.59.
